A short description of series [1]: Log D (pH7.4 shake flask). The settings on record: pH 7.4; 1-octanol/phosphate buffer shake flask; read-out: mLogD (pH 7.4). The series is classed as physicochemical.
Series [2] can be described thus: Kinetic solubility determination (high throughput). The series is classed as physicochemical. The conditions noted are these: kinetic from dmso stock, sterile water, 5% DMSO, room temperature. As for the experimental part: Test compounds (10 μL; 20 mM DMSO solution) were added to sterile water (190 μL) in triplicate and shaken at 300 rpm at room temperature. After 90 min. the test compounds were filtered by centrifuge (5 min. at 3000 rpm) to obtain the aqueous filtrate. Acetonitrile (20 μL) was dispensed into clean 96-well UV/VIS analysis plate and aqueous filtrate (80 μL) added and the plate analysed for test compound concentration using a Molecular Devices SPECTRAmax® plus microplate reader at the following wavelengths: (280, 300, 320, 340, 360, 800 nm). […] The diluted filtrate (80 μL) was then added to acetonitrile (20 μL) and the plate analysed. as previously.

Structures are written as SMILES. Values after ≈ are worked out from the molar mass of the structure shown. Bounds are passed on as bounds.

In the case of `CC(C)(C)NC(=O)c1cc(NC(=O)Cc2cc(O)c(C(C)(C)C)cc2F)ccn1` [91 of PCT/GB2019/050209, reference compound], in series [1], the logD is more than 4.5. In addition, in series [2], the solubility (kinetic) (usually solubility judged after dilution from a stock solution rather than from solid) at 90 min was 10 µg/mL (≈ 24.9 µM).
Consider `CC(C)(C#N)NC(=O)c1cc(NC(=O)Cc2ccc(C(C)(C)C)c(O)c2)ccn1` [93.4 of PCT/GB2019/050209, reference compound], for which, in series [1], the logD was more than 4.1. This molecule also gave a kinetic solubility at 90 min in series [2] of 37 µg/mL (≈ 93.8 µM).
Turning to `CC(C#N)NC(=O)c1cc(NC(=O)Cc2cc(O)c(C(C)(C)C)cc2F)ccn1` (stereo not drawn) [Example 1.3], the logD in series [1] was found to be 3.9. For the same molecule, the solubility (kinetic) at 90 min in series [2] turned out to be 35 µg/mL (≈ 87.8 µM).
In the case of `CC(C)(O)c1cc(F)c(CC(=O)Nc2ccnc(C(=O)NC3(C(F)(F)F)CC3)c2)cc1O` [Example 2, 4-[[2-[2-Fluoro-5-hydroxy-4-(1-hydroxy-1-methyl-ethyl)phenyl]acetyl]amino]-N-[1-(trifluoromethyl)cyclopropyl]pyridine-2-carboxamide], the logD in series [1] turned out to be 3.1. This molecule had a solubility (kinetic) at 90 min in series [2] of 152 µg/mL (≈ 334 µM).
As to `CC(C)(CO)c1cc(F)c(CC(=O)Nc2ccnc(C(=O)NC3(C(F)(F)F)CC3)c2)cc1O` [Example 2.6, 4-[[2-[2-Fluoro-5-hydroxy-4-(2-hydroxy-1,1-dimethyl-ethyl)phenyl]acetyl]amino]-N-[1-(trifluoromethyl)cyclopropyl]pyridine-2-carboxamide], in series [1], the logD came out at 3.2. Besides, in series [2], the kinetic solubility at 90 min was 142 µg/mL (≈ 302 µM).
For the molecule `CCC(C)(O)c1cc(F)c(CC(=O)Nc2ccnc(C(=O)NC3(C(F)(F)F)CC3)c2)cc1O` (stereo not drawn) [Example 2.11, 4-[[2-[2-Fluoro-5-hydroxy-4-(1-hydroxy-1-methyl-propyl)phenyl]acetyl]amino]-N-[1-(trifluoromethyl)cyclopropyl]pyridine-2-carboxamide], in series [1], the logD stood at 3.6. The molecule further came in with a kinetic solubility at 90 min in series [2] of 116 µg/mL (≈ 247 µM).
With `O=C(Cc1cc(O)c(C2(CO)CCC2)cc1F)Nc1ccnc(C(=O)NC2(C(F)(F)F)CC2)c1` [Example 2.13, 4-[[2-[2-Fluoro-5-hydroxy-4-[1-(hydroxymethyl)cyclobutyl]phenyl]acetyl]amino]-N-[1-(trifluoromethyl)cyclopropyl]pyridine-2-carboxamide], the logD in series [1] is 3.3. The same molecule registered a kinetic solubility at 90 min in series [2] of 67 µg/mL (≈ 139 µM).
With `CC(C)(CCO)c1cc(F)c(CC(=O)Nc2ccnc(C(=O)NC3(C(F)(F)F)CC3)c2)cc1O` [Example 11, 4-[[2-[2-Fluoro-5-hydroxy-4-(3-hydroxy-1,1-dimethyl-propyl)phenyl]acetyl]amino]-N-[1-(trifluoromethyl)cyclopropyl]pyridine-2-carboxamide], the logD in series [1] came out at 3.7. The molecule further displayed a solubility (kinetic) at 90 min in series [2] of 120 µg/mL (≈ 248 µM).
Regarding `CC(C)(CO)c1cc(Cl)c(CC(=O)Nc2ccnc(C(=O)NC3(C(F)(F)F)CC3)c2)cc1O` [Example 14, 4-[[2-[2-Chloro-5-hydroxy-4-(2-hydroxy-1,1-dimethyl-ethyl)phenyl]acetyl]amino]-N-[1-(trifluoromethyl)cyclopropyl]pyridine-2-carboxamide], in series [1], the logD is 3.9. In addition, in series [2], the kinetic solubility at 90 min came to 90 µg/mL (≈ 185 µM).
Take `Cc1cc(C(C)(C)CO)c(O)cc1CC(=O)Nc1ccnc(C(=O)NC2(C(F)(F)F)CC2)c1` [Example 14.1, 4-[[2-[5-Hydroxy-4-(2-hydroxy-1,1-dimethyl-ethyl)-2-methyl-phenyl]acetyl]amino]-N-[1-(trifluoromethyl)cyclopropyl]pyridine-2-carboxamide]: the logD in series [1] was 3.4. Besides, the solubility (kinetic) at 90 min in series [2] is 154 µg/mL (≈ 331 µM).
Take `CC(C)(CO)c1cc(Cl)c(CC(=O)Nc2ccnc(C(=O)NC3(C(F)F)CC3)c2)cc1O` [Example 15.3, 4-[[2-[2-Chloro-5-hydroxy-4-(2-hydroxy-1,1-dimethyl-ethyl)phenyl]acetyl]amino]-N-[1-(difluoromethyl)cyclopropyl]pyridine-2-carboxamide]: the logD in series [1] was found to be 3.4. In series [2], this molecule came in with a solubility (kinetic) at 90 min of 164 µg/mL (≈ 351 µM).
In the case of `O=C(Cc1cc(O)c(C(CO)C(F)(F)F)cc1F)Nc1ccnc(C(=O)NC2(C(F)(F)F)CC2)c1` (stereo not drawn) [Example 17, 4-[[2-[2-Fluoro-5-hydroxy-4-[2,2,2-trifluoro-1-(hydroxymethyl)ethyl]phenyl]acetyl]amino]N-[1-(trifluoromethyl)cyclopropyl]pyridine-2-carboxamide], in series [1], the logD was determined as 3.3. In series [2], this molecule showed a kinetic solubility at 90 min of 292 µg/mL (≈ 573 µM).
